Measured values reported in paper PMC4102788, “Linking off-target kinase pharmacology to the differential cellular effects observed among PARP inhibitors” (Oncotarget, 2014).
“Also recorded” adds a separate entry of the source. One block for each compound: values may come before it.

Assays:
human DYRK1A kinase = molecular target: T1, human DYRK1A kinase (Homo sapiens, UniProt Q13627); test: Human DYRK1A kinase in vitro inhibition assay (Cerep, LANCE); type: biochemical
T1 construct: purchased Cerep (CRO that ran the assay) 2781 (781-dyrk1a)
Method: Evaluation of the effects of compounds on the activity of the human DYRK1a
[sequence]-amide (MBP) using a human recombinant enzyme and the
mixture is incubated for 30 min at room temperature. For control basal measurements,

human CDC2/CDK1 = molecular target: T2, human CDC2/CDK1 (Homo sapiens, UniProt P06493); test: Human CDK1 kinase in vitro inhibition assay (Cerep, LANCE); type: biochemical
T2 construct: purchased Cerep (CRO that ran the assay) 2875 (781-cdc2); host or cells: insect cells
Excerpt: All details for the CDC2/CDK1 in vitro assay can be consulted in the Cerep
Catalogue available online under references 2875 (781-cdc2):
http://www.cerep.fr/cerep/users/pages/catalog/Affiche_CondExp_Test.asp?test=2875
CDC2/CDK1 quantified by measuring the phosphorylation of
the substrate Ulight-[sequence]-amide (MBP) using a human
recombinant enzyme expressed in insect cells and the LANCE® detection method.
The test compound, reference compound or water (control) are mixed with the enzyme (2.28 ng) in a buffer containing 40 mM Hepes/Tris(pH 7.4), 0.8 mM EGTA/Tris, 8 mM MgCl2, 1.6 mM DTT and 0.008% Tween 20. Thereafter, the reaction is initiated by adding 100 nM of the
substrate Ulight-[sequence]-amide (MBP) and 10 µM ATP, and the
mixture is incubated for 15 min at room temperature. […] After 60 more min, the fluorescence transfer is
The IC50 values (concentration causing a half-maximal inhibition of control specific activity) and Hill coefficients (nH) were determined by non-linear regression analysis of the inhibition curves generated with mean replicate values using Hill equation curve fitting (Y = D + [(A – D)/(1 + (C/C50)nH)], where Y = specific activity, D = minimum specific activity, A = maximum specific activity, C = compound concentration, C50 = IC50, and nH = slope factor).

STAT3 phosphorilation = system: STAT3 phosphorilation; parameters: method as in PMID 22678161; conditions: at 5 µM; cited from earlier work
16 protein kinases = test: Focused in vitro kinase screening across the panel of 16 protein kinases; type: biochemical, human; conditions: panel of 16 kinases
Excerpt: From these kinases, we selected the 11 that were available for screening at Cerep (www.cerep.fr). The selection included members of three different kinase groups distantly related by sequence (all having less than 20% sequence identity with PIM1), namely, CAMK (PIM2, STK17A), CMGC (DYRK1A, CDK9, HIPK2, CK2, and CDC7) and AGC (AKT3, PRKCG, PRKCI, and PKA). To this list, we added also two kinases belonging to the TK group that have been identified as biomarkers of PARP drug sensitivity and shared ligands with PIM1, namely, ABL and ALK. […] In the end, a total of 16 protein kinases were selected for a focused in vitro screening of PARP inhibitors.
(§1) Rucaparib, veliparib and olaparib were purchased from Selleckchem. Kinase in vitro assays were perfomed at Cerep (www.cerep.fr) by measuring the phosphorylation of appropriate peptide substrates by human recombinant enzymes and using FRET as a detection method (a detailed description of each kinase assay is available in online supplementary data).

S6K1 kinase = molecular target: S6K1 kinase; parameters: method as in PMID 24072592; conditions: cited from earlier work
PIM1 kinase = molecular target: PIM1 kinase; parameters: method as in PMID 23025350; conditions: cited from earlier work
PARP-1 = molecular target: PARP-1; parameters: method as in PMID 21948594, PMID 21336281; conditions: ChEMBL; cited from earlier work
human CDK9 kinase = molecular target: T3, human CDK9 kinase (Homo sapiens, UniProt P50750); test: Human CDK9 kinase in vitro inhibition assay (Cerep, LANCE); type: biochemical; conditions: human recombinant enzyme, 10 µM ATP
T3 construct: purchased Cerep (CRO that ran the assay) 2912 (781-cdk9); host or cells: Sf9 cells
Excerpt: as §1
Human CDK9 kinase in vitro inhibition assay
All details for the CDK9 in vitro assay can be consulted in the Cerep Catalogue available online under references 2912 (781-cdk9): http://www.cerep.fr/cerep/users/pages/catalog/Affiche_CondExp_Test.asp?test=2912 Evaluation of the effects of compounds on the activity of the human CDK9 quantified by measuring the phosphorylation of the substrate Ulight- […]
mixture is incubated for 90 min at room temperature. […] After 60 more min, the fluorescence transfer is measured at λex=337 nm, λem=620 nm and λem=665 nm using a microplate reader (Envision, Perkin Elmer). The enzyme activity is determined by dividing the signal measured at λem=665 nm by that measured at λem=620 nm (ratio). The results are expressed as a percent inhibition of the control enzyme activity. The standard inhibitory reference compound is staurosporine, which is tested in each experiment at several concentrations to obtain an inhibition curve from which its IC50 value is calculated. […]

human PIM1 kinase = molecular target: T4, human PIM1 kinase (Homo sapiens, UniProt P11309); test: Human Pim1 kinase in vitro inhibition assay (Cerep, LANCE/FRET); type: biochemical; conditions: human recombinant enzyme, 30 µM ATP
T4 construct: purchased Cerep (CRO that ran the assay) 2919 (745-P1); host or cells: insect cells
Method: Human Pim1 and Pim2 kinase in vitro inhibition assays
Evaluation of the effects of compounds on the activity of the human Pim1 and Pim2 kinases were quantified by measuring the phosphorylation of the substrate Ulight-
CREBtide ([sequence]) using either Pim1 or Pim2 human recombinant enzymes expressed in insect cells and the LANCE® detection method 18,19.
The test compound, reference compound or water (control) are mixed with either Pim1 (4.08 ng) or Pim2 (6.36 ng) enzymes in a buffer containing 40 mM Hepes/Tris (pH 7.4), 0.8 mM EGTA/Tris, 8 mM MgCl2, 1.6 mM DTT and 0.008% Tween 20.
Thereafter, the reaction is initiated by adding 25 nM of the substrate Ulight-CREBtide
([sequence]) and ATP (30 µM for Pim1 and 3 µM for Pim2), and the mixture is incubated for 60 min at room temperature. […] After 60 more min, the fluorescence transfer is measured at λex=337 nm, λem=620 nm and λem=665 nm using a microplate reader (Envision, Perkin Elmer).

[1] = 50 mg single daily dose; cited from earlier work

T2 sequence (P06493 whole entry): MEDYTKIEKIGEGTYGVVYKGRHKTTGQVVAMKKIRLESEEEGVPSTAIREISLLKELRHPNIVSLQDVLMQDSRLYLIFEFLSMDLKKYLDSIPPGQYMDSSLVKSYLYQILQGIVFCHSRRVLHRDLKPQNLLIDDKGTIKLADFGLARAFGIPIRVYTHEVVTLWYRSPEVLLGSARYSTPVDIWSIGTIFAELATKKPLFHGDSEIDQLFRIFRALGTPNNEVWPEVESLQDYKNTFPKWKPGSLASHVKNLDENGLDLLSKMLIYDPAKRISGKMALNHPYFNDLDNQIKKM
T2 sequence (P14635 whole entry partner): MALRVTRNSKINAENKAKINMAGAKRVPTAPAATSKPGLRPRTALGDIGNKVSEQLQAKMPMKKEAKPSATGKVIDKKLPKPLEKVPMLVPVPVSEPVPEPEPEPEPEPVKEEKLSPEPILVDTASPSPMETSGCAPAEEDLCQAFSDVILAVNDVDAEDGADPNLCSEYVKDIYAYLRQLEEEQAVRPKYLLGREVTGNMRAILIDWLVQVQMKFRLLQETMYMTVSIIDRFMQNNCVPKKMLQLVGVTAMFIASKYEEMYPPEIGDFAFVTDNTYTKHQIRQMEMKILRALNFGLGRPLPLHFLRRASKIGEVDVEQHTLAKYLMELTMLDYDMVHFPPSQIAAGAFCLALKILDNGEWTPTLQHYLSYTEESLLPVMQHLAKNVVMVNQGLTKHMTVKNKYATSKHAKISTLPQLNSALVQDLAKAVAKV
T3 sequence (P50750 whole entry): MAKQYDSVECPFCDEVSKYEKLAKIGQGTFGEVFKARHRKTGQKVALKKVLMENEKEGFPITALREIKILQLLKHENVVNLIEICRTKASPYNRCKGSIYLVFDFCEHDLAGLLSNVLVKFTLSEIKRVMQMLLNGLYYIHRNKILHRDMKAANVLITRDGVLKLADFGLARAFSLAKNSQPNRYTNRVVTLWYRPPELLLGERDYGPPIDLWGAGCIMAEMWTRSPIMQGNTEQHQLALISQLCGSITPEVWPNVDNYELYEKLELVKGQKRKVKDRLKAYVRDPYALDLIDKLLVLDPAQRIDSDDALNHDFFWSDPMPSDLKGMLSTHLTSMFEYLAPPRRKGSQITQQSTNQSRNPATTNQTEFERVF
T3 sequence (O60563 whole entry partner): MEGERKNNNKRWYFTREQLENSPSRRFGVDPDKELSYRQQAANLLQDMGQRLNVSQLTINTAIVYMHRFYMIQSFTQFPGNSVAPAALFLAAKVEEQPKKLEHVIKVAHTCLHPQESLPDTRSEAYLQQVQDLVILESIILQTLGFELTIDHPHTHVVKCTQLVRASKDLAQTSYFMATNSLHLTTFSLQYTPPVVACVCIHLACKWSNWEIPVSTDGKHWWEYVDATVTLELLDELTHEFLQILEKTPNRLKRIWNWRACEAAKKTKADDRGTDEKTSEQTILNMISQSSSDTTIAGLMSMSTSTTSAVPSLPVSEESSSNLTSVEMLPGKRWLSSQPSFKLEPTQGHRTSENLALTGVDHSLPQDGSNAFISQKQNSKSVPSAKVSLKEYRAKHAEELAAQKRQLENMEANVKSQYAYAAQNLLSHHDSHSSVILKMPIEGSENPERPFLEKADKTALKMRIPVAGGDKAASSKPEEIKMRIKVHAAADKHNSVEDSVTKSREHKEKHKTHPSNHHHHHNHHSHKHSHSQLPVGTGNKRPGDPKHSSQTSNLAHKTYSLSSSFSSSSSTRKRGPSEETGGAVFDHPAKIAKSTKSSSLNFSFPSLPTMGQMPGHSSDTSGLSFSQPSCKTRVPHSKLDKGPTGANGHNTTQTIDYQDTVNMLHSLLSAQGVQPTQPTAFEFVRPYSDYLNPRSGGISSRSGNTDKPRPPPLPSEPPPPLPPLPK
T4 sequence (P11309 whole entry): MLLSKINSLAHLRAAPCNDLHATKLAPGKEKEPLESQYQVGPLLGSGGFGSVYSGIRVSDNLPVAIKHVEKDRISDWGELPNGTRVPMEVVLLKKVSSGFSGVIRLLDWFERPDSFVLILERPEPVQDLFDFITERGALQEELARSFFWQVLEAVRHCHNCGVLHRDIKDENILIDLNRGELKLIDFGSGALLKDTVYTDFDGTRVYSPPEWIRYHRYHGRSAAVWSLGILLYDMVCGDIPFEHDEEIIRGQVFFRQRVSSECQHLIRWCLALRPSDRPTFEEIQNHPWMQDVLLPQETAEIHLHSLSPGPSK

inhibition of DYRK1A (in words) (human DYRK1A kinase): not inhibited | inhibition of CDK1 (in words) (human CDC2/CDK1): not inhibited
Structure (SMILES): O=C(c1cc(Cc2n[nH]c(=O)c3ccccc23)ccc1F)N1CCN(C(=O)C2CC2)CC1 [olaparib]
effect on STAT3 phosphorilation (STAT3 phosphorilation): do not affect the phosphorilation state of STAT3 | affinity for the 16 protein kinases tested (16 protein kinases): does not inhibit any; also recorded: no relevant affinities

Structure (SMILES): NC(=O)c1cccc2[nH]c(-c3ccc(O)cc3)nc12 [Nu1085]
IC50 (S6K1 kinase): 0.56 µM

Structure (SMILES): CN(C)CC(=O)Nc1ccc2[nH]c(=O)c3ccccc3c2c1 [PJ34]
IC50 (PIM1 kinase): 3.7 µM

Structure (SMILES): O=C1CCCN1Cc1ccc2c(c1)[nH]c(=O)c1cccn12 [CHEMBL539474]
Ki (PARP-1): 0.698 µM

inhibition of DYRK1A (in words) (human DYRK1A kinase): not inhibited | IC50 (human CDK9 kinase): 8.2 µM | inhibition of CDK1 (in words) (human CDC2/CDK1): not inhibited | IC50 (human PIM1 kinase): 17 µM
Structure (SMILES): C[C@]1(c2nc3c(C(N)=O)cccc3[nH]2)CCCN1 [veliparib]
effect on STAT3 phosphorilation (STAT3 phosphorilation): do not affect the phosphorilation state of STAT3 | highest peak plasma concentration [1]: around 1 µM
